The structures appear in SMILES notation. Read-outs that look alike come from different tables or passages of the source.

The nature of data set [1]: Pharmacokinetics in plasma and lung in mouse. The format is in vivo. The conditions noted are these: ratio of lung AUC (μg hr/g) to plasma AUC (μg hr/mL), oral aspiration, 0.2 mg/mL, 50 uL. How it is done: Plasma and lung levels of test compounds and ratios thereof were determined in the following manner. BALB/c mice from Charles River Laboratories were used in the assay. Test compounds were individually formulated in 20% propylene glycol in pH 4 citrate buffer at a concentration of 0.2 mg/mL and 50 uL of the dosing solution was introduced into the trachea of a mouse by oral aspiration. At various time points (typically 0.167, 2, 6, 24 hr) post dosing, blood samples were removed via cardiac puncture and intact lungs were excised from the mice. Blood samples were centrifuged (Eppendorf centrifuge, 5804R) for 4 minutes at approximately 12,000 rpm at 4° C. to collect plasma. Lungs were padded dry, weighed, and homogenized at a dilution of 1:3 in sterile water. Plasma and lung levels of test compound were determined by LC-MS analysis against analytical standards constructed into a standard curve in the test matrix. A lung to plasma ratio was determined as the ratio of the lung AUC in μg hr/g to the plasma AUC in μg hr/mL, where AUC is conventionally defined as the area under the curve of test compound concentration vs. time.

The conditions of data set [2]: mouse, in vivo. How it is done: (§1) Adult balb/c mice from Harlan were used in the assay. On the day of study, animals were lightly anesthetized with isoflurane and administered either vehicle or test compound (0.5 mg/mL, 50 μL total volume over several breaths) via oral aspiration. Animals were placed in lateral recumbency post dose and monitored for full recovery from anesthesia before being returned to their home cage. Four hours later, animals were once again briefly anesthetized and challenged with either vehicle or IL-13 (0.03 μg total dose delivered, 50 μL total volume) via oral aspiration before being monitored for recovery from anesthesia and returned to their home cage. One hour after vehicle or IL-13 administration, lungs were collected for both pSTAT6 detection using an anti-pSTAT6 ELISA (rabbit mAb capture/coating antibody; mouse mAb detection/report antibody: anti-pSTAT6-pY641; secondary antibody: anti-mouse IgG-HRP) and analyzed for total drug concentration as described above in Assay 4.
Selected compounds of the invention were characterized in both the pharmacokinetic assay (Assay 4) and pharmacodynamic assay (Assay 5). A good correlation was observed between test compound concentration in lung determined in the pharmacokinetic assay and in the pharmacodynamic assay at a similar time points post dosing. Observation of significant compound concentration in the mouse lung in the pharmacodynamic assay confirmed that the observed inhibition of IL-13 induced pSTAT6 induction was a result of the activity of the test compound.

The next data set concerns the target JAK1 (Homo sapiens (Human), UniProt P23458). The data set can be described thus: LanthaScreen JAK biochemical assay (JAK1). Particulars: vs Examples 1, 7, 13, 6 respectively. Background: In TR-FRET formats the signal depends on donor and acceptor labels being close together.
Data set [3] concerns interleukin-13 induced STAT6 phosphorylation in BEAS-2B human lung epithelial cells. The data set is described as follows: AlphaScreen JAKI cellular potency assay (BEAS-2B). Particulars: vs Examples 1, 7, 13, 6 respectively. The format is cell-based. (In general: Alpha assays give light when donor and acceptor beads are brought close together.)
Procedure: The AlphaScreen JAKI cellular potency assay was carried out by measuring interleukin-13 (IL-13, R&D Systems) induced STAT6 phosphorylation in BEAS-2B human lung epithelial cells (ATCC). The anti-STAT6 antibody (Cell Signaling Technologies) was conjugated to AlphaScreen acceptor beads (Perkin Elmer), while the anti-pSTAT6 (pTyr641) antibody (Cell Signaling Technologies) was biotinylated using EZ-Link Sulfo-NHS-Biotin (Thermo Scientific).
BEAS-2B cells were grown at 37° C. in a 5% CO2 humidified incubator in 50% DMEM/50% F-12 medium (Life Technologies) supplemented with 10% FBS (Hyclone), 100 U/mL penicillin, 100 μg/mL streptomycin (Life Technologies), and 2 mM GlutaMAX (Life Technologies). On day 1 of the assay, cells were seeded at a 7,500 cells/well density in white poly-D-lysine-coated 384-well plates (Corning) with 25 μL medium, and were allowed to adhere overnight in the incubator. On day 2 of the assay, the medium was removed and replaced with 12 μL of assay buffer (Hank's Balanced Salt Solution/HBSS, 25 mM HEPES, and 1 mg/ml bovine serum albumin/BSA) containing dose-responses of test compounds. Compounds were serially diluted in DMSO and then diluted another 1000-fold in media to bring the final DMSO concentration to 0.1%. Cells were incubated with test compounds at 37° C. for 1 h, and followed by the addition of 12 μl of pre-warmed IL-13 (80 ng/ml in assay buffer) for stimulation. After incubating at 37° C. for 30 min, the assay buffer (containing compound and IL-13) was removed, and 10 μl of cell lysis buffer (25 mM HEPES, 0.1% SDS, 1% NP-40, 5 mM MgCl2, 1.3 mM EDTA, 1 mM EGTA, and supplement with Complete Ultra mini protease inhibitors and PhosSTOP from Roche Diagnostics). The plates were shaken at ambient temperature for 30 min before the addition of detection reagents. […] After a minimum of 2 h incubation, the assay plates were read on the EnVision plate reader.
Results were expressed as the negative logarithm of the IC50 value, pIC50.
Data set [4] relates to IL-13 induced pSTAT6 in lung tissue. The data set can be described thus: Murine model of IL-13 induced pSTAT6 induction in lung tissue. The conditions noted are these: mouse lung, Assay 5 conditions. In kind it is in vivo. How it is done: Il-13 is an important cytokine underlying the pathophysiology of asthma (Kudlacz et al. Eur. J. Pharmacol, 2008, 582, 154-161). IL-13 binds to cell surface receptors activating members of the Janus family of kinases (JAK) which then phosphorylate STAT6 and subsequently activates further transcription pathways. In the described model, a dose of IL-13 was delivered locally into the lungs of mice to induce the phosphorylation of STAT6 (pSTAT6) which is then measured as the endpoint.
as §1, with “On the day of study, animals were lightly anesthetized with isoflurane and administered either vehicle or test compound (0.5 mg/mL, 50 μL total volume over several breaths) via oral aspiration.” left out, “4. […]” for “4.”

Data set [5] in a line: Dynamic moisture sorption assessment. In kind it is physicochemical. Particulars: humidity range of 5% to 90% relative humidity, room temperature (25° C.). How it is done: Dynamic moisture sorption (DMS) measurement was performed using a VTI atmospheric microbalance, SGA-100 system (VTI Corp., Hialeah, Fla. 33016). A weighed sample was used and the humidity was lowest possible value (close to 0% RH) at the start of the analysis. The DMS analysis consisted of an initial drying step (˜0% RH) for 120 minutes, followed by two cycles of sorption and desorption with a scan rate of 5% RH/step over the humidity range of 5% RH to 90% RH. The DMS run was performed isothermally at 25° C.

Sequence of JAK1 (P23458 whole entry): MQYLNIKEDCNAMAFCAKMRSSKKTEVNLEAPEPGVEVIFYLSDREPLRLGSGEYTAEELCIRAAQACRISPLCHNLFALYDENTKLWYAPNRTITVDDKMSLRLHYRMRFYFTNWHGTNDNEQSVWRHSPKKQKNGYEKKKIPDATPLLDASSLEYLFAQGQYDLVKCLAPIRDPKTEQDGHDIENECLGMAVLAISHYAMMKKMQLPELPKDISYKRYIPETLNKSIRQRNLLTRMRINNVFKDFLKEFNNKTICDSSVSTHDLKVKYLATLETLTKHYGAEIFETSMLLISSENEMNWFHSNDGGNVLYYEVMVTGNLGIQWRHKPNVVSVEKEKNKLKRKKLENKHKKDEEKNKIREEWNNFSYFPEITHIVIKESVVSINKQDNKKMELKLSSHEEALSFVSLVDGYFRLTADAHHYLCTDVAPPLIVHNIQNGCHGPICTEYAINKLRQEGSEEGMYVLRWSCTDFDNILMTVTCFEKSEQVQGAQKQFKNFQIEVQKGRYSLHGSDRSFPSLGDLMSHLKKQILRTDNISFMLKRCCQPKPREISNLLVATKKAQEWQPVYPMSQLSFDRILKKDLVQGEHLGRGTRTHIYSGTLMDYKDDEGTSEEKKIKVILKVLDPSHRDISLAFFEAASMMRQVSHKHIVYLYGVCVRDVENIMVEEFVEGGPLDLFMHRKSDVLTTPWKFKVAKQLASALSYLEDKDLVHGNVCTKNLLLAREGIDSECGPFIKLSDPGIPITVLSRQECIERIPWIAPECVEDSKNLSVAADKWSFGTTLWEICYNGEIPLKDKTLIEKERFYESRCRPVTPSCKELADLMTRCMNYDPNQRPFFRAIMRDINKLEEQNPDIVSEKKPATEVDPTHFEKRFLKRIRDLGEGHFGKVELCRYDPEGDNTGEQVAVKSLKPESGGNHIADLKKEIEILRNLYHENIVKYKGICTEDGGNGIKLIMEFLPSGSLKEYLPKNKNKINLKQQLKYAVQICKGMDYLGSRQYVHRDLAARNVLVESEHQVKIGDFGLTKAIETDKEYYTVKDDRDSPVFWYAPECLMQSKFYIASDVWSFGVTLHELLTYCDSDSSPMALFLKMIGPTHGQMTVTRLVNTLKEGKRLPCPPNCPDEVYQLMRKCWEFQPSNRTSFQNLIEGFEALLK

Consider `CCc1cc(O)c(F)cc1-c1ccc2c(-c3nc4c([nH]3)CCN(C[C@@H]3COCCN3)C4)n[nH]c2c1` [Example 14, (R)-5-Ethyl-2-fluoro-4-(3-(5-(morpholin-3-ylmethyl)-4,5,6,7-tetrahydro-1H-imidazo[4,5-c]pyridin-2-yl)-1H-indazol-6-yl)phenol], for which the “Lung to Plasma ratio Assay 4” value in data set [1] was “A (A denotes a ratio >100)”. As to `CCc1cc(O)c(F)cc1-c1ccc2c(-c3nc4c([nH]3)CCN(C[C@@H]3CCCN3C)C4)n[nH]c2c1` [Example 11, (S)-5-ethyl-2-fluoro-4-(3-(5-((1-methylpyrrolidin-2-yl)methyl)-4,5,6,7-tetrahydro-1H-imidazo[4,5-c]pyridin-2-yl)-1H-indazol-6-yl)phenol], the “Lung to Plasma ratio Assay 4” value in data set [1] is given as “A (A denotes a ratio >100)”.

For `CCc1cc(O)c(F)cc1-c1ccc2c(-c3nc4c([nH]3)CCN(C3CC(C)C3)C4)n[nH]c2c1` (stereo not drawn) [Example C-1, 5-Ethyl-2-fluoro-4-(3-(5-(3-methylcyclobutyl)-4,5,6,7-tetrahydro-1H-imidazo[4,5-c]pyridin-2-yl)-1H-indazol-6-yl)phenol], the “factor by which lung concentration was smaller than for the corresponding compound of the invention” value (“factor” for short) in data set [2] (balb/c, 5 h) was 36. The “fold less potent than the corresponding compound of the invention in the enzyme assay” value at JAK1 came out at 2 fold. Consider `CCc1cc(O)c(F)cc1-c1ccc2c(-c3nc4c([nH]3)CCN(C3CCC(C)CC3)C4)n[nH]c2c1` (stereo not drawn) [Example C-4], for which the “fold less potent than the corresponding compound of the invention in the BEAS-2B cellular assay” value in data set [3] is reported as 6 fold. In data set [2], the “factor” value was 23. Also, at JAK1, the “fold less potent than the corresponding compound of the invention in the enzyme assay” value worked out at 2.5 fold. On to `CCc1cc(O)c(F)cc1-c1ccc2c(-c3nc4c([nH]3)CCN(CCN3CCC[C@@H]3C)C4)n[nH]c2c1` [Example 15, (S)-5-ethyl-2-fluoro-4-(3-(5-(2-(2-methylpyrrolidin-1-yl)ethyl)-4,5,6,7-tetrahydro-1H-imidazo[4,5-c]pyridin-2-yl)-1H-indazol-6-yl)phenol], for which, in data set [1], the “Lung to Plasma ratio Assay 4” value is given as “A (A denotes a ratio >100)”.

As to `CCc1cc(O)c(F)cc1-c1ccc2c(-c3nc4c([nH]3)CCN(CCN(C)CC(C)C)C4)n[nH]c2c1` [Example 3-33], the “Lung to Plasma ratio Assay 4” value in data set [1] is listed as “A (A denotes a ratio >100)”. Regarding `CCc1cc(O)c(F)cc1-c1ccc2c(-c3nc4c([nH]3)CCN(C3CN(C5CCS(=O)(=O)C5)C3)C4)n[nH]c2c1` (stereo not drawn) [Example 1-15], the “pSTAT6 inhibition in the pharmacodynamic assay” value in data set [4] is on record as “noted as exceptions”. For `CCc1cc(O)c(F)cc1-c1ccc2c(-c3nc4c([nH]3)CCN(CCNC3CC(OC)C3)C4)n[nH]c2c1` (stereo not drawn) [Example 8, 5-Ethyl-2-fluoro-4-(3-(5-(2-((3-methoxycyclobutyl)amino)ethyl)-4,5,6,7-tetrahydro-1H-imidazo[4,5-c]pyridin-2-yl)-1H-indazol-6-yl)phenol], in data set [1], the “Lung to Plasma ratio Assay 4” value is reported as “A (A denotes a ratio >100)”. Turning to `CCc1cc(O)c(F)cc1-c1ccc2c(-c3nc4c([nH]3)CCN(CCC(C)C)C4)n[nH]c2c1` [Example C-2], the “fold less potent than the corresponding compound of the invention in the BEAS-2B cellular assay” value in data set [3] worked out at 6 fold. Moreover, the “factor” value in data set [2] is 52. Moreover, the “fold less potent than the corresponding compound of the invention in the enzyme assay” value on JAK1 was 3 fold.

For the molecule `CCc1cc(O)c(F)cc1-c1ccc2c(-c3nc4c([nH]3)CCN(C[C@H]3COCCN3)C4)n[nH]c2c1` [Example 13, (S)-5-Ethyl-2-fluoro-4-(3-(5-(morpholin-3-ylmethyl)-4,5,6,7-tetrahydro-1H-imidazo[4,5-c]pyridin-2-yl)-1H-indazol-6-yl)phenol], in data set [1], the “Lung to Plasma ratio Assay 4” value was “A (A denotes a ratio >100)”.

For the molecule `CCc1cc(O)c(F)cc1-c1ccc2c(-c3nc4c([nH]3)CCN(CC3CNC3)C4)n[nH]c2c1` [Example 14-7], in data set [1], the “Lung to Plasma ratio Assay 4” value is reported as “A (A denotes a ratio >100)”. `CCc1cc(O)c(F)cc1-c1ccc2c(-c3nc4c([nH]3)CCN(C3CCN(C)CC3)C4)n[nH]c2c1` [crystalline hydrate, 5-ethyl-2-fluoro-4-(3-(5-(1-methylpiperidin-4-yl)-4,5,6,7-tetrahydro-1H-imidazo[4,5-c]pyridin-2-yl)-1H-indazol-6-yl)phenol]: the “weight gain (dynamic moisture sorption)” value in data set [5] was “less than 0.12%”. In the case of `CCc1cc(O)c(F)cc1-c1ccc2c(-c3nc4c([nH]3)CCN(CC3CCCOC3)C4)n[nH]c2c1` (stereo not drawn) [Example C-3], the “fold less potent than the corresponding compound of the invention in the BEAS-2B cellular assay” value in data set [3] is listed as 3 fold. The “factor” value in data set [2] is reported as 13. The “fold less potent than the corresponding compound of the invention in the enzyme assay” value on JAK1 is recorded as 6 fold.

With `CCc1cc(O)c(F)cc1-c1ccc2c(-c3nc4c([nH]3)CCN(CCNC3(C#N)CC3)C4)n[nH]c2c1` [Example 3-1], the “pSTAT6 inhibition in the pharmacodynamic assay” value in data set [4] is listed as “noted as exceptions”.

For the origin of these results see US10913740B2, “JAK kinase inhibitor compounds for treatment of respiratory disease” (THERAVANCE BIOPHARMA R&D IP, LLC, priority 2015, dated 2021).
